No end group written: not given here.
Legend:
Test in all cases: biochemical
DR7 (DRB1*0701) = DR7 (DRB1*0701) (Homo sapiens, UniProt P01903+P01911, A100R/A102G/A103Q/D57E/D86V/E43K/F76Y/K127E/L162R/M171V/P40G/Q125H/Q99D/R33Q/R42Y/R54Q/S133A/S66F/T210M/V115G/Y107V/Y59L/Y89S); type: binding
DRB1*1201 = DRB1*1201 (Homo sapiens, UniProt P01903+P01911, A100R/A169T/D57E/D86V/F55L/H45Y/K41T/L162R/M171V/P40S/Q125H/Q178H/Q39Y/Q99D/R42G/S66L/T262R/V114A/V67L/W38E/Y59H/Y61H/Y89S); type: binding
DRB1*0802 = DRB1*0802 (Homo sapiens, UniProt P01903+P01911, A100R/A103L/A169T/F76Y/H45Y/I96F/K41T/L162R/M171V/P40S/Q125H/Q178H/Q39Y/Q99D/R218S/R42G/S66Y/V115G/W38E); type: binding
DRB1*0301 = DRB1*0301 (Homo sapiens, UniProt P01903+P01911, A100K/A102G/A103R/A169T/F55Y/I96L/K41T/L162R/M171V/P40S/Q125H/Q178H/Q39Y/R42S/S66N/T106N/T262R/W38E/Y61H); type: binding
DRB1*0901 = DRB1*0901 (Homo sapiens, UniProt P01903+P01911, A100R/A103E/D57H/D86V/F55Y/F60I/F76Y/I96F/K127E/L162R/M171V/P40D/Q125H/Q99R/R33Q/R42F/S133A/S66N/T210M/V115G/W38K/Y107V/Y59G/Y89S); type: binding
DR1 (DRB1*0101) = DR1 (DRB1*0101) (Homo sapiens, UniProt P01903+P01911, A100R/D57E/F55L/F60I/F76Y/I96L/L162R/M171V/P40L/Q125E/R42F/V115G/Y59C); type: binding
DRB1*1302 = DRB1*1302 (Homo sapiens, UniProt P01903+P01911, A100E/A169T/K41T/L162R/M171V/P40S/Q125H/Q178H/Q39Y/Q99D/R42S/S66N/T262R/V115G/W38E/Y61H); type: binding
DRB5*0101 = DRB5*0101 (Homo sapiens, UniProt P01903+Q30154); details: Binding affinity DRB5 *0101
DRB4*0101 = DRB4*0101 (Homo sapiens, UniProt P01903+P13762, G164S); type: binding
DRB1*0405 = DRB1*0405 (Homo sapiens, UniProt P01903+P01911, A100R/A169T/D86S/F76Y/I96L/K127E/L162R/M171V/N62H/P40V/Q125Y/R42H/S133A/S149N/S66Y/V115G/V209L/W38E); type: binding
DR4w4 (DRB1*0401) = DR4w4 (DRB1*0401) (Homo sapiens, UniProt P01903+P01911, A100K/A169T/F76Y/I96L/K127E/L162R/M171V/N62H/P40V/Q125Y/R42H/S133A/S149N/S66Y/V115G/V209L/W38E); type: binding
DRB1*1501 = DRB1*1501 (Homo sapiens, UniProt P01903+P01911); type: binding
DRB1*1101 = DRB1*1101 (Homo sapiens, UniProt P01903+P01911, A100R/A169T/A87E/I96F/K41T/L162R/M171V/P40S/Q125H/Q178H/Q39Y/Q99D/R42S/S66Y/T262R/V115G/W38E); details: Binding affinity DRB1 *1101
Chain of DRB1*1101 (P01903 26-254 limits assumed, other chains not shown): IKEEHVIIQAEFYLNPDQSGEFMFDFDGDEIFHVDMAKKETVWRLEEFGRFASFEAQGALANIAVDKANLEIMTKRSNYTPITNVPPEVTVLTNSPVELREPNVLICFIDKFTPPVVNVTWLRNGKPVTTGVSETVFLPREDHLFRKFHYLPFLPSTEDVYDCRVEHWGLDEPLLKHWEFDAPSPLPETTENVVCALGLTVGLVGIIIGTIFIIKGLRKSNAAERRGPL

Chain of DRB1*0301 (P01903 26-254 limits assumed, other chains not shown): as above
Chain of DRB1*1302 (P01903 26-254 limits assumed, other chains not shown): as above

IVHLKGDPNSLKCLR [Peptide 90.0255] was tested, and the IC50 (DR7 (DRB1*0701)) was greater than 20000 nM, the IC50 (DRB1*1201) was 4650 nM and the IC50 (DRB1*0802) was 2210 nM. It also gave an IC50 (DRB1*0301) of 42 nM, an IC50 (DRB1*0901) greater than 20000 nM and an IC50 (DR1 (DRB1*0101)) of 229 nM. For the same sequence, the IC50 (DRB1*1302) was 574 nM, the IC50 (DRB5*0101) was 2560 nM and the IC50 (DRB4*0101) was 1590 nM. It also gave an IC50 (DRB1*0405) greater than 20000 nM, an IC50 (DR4w4 (DRB1*0401)) of 83 nM and an IC50 (DRB1*1501) of 7830 nM.
With CQAIELQLALEALNK [Peptide 90.0014] the IC50 (DR7 (DRB1*0701)) was greater than 20000 nM, the IC50 (DRB1*1201) was 1100 nM and the IC50 (DRB1*0802) was 3590 nM. For the same sequence, the IC50 (DRB1*0301) was 466 nM, the IC50 (DRB1*0901) was 1780 nM and the IC50 (DR1 (DRB1*0101)) was 25 nM. The IC50 (DRB1*1302) was 214 nM, the IC50 (DRB5*0101) was 1910 nM and the IC50 (DRB1*1101) was 3230 nM. For the same sequence, the IC50 (DRB4*0101) was 14 nM, the IC50 (DRB1*0405) was 1520 nM and the IC50 (DR4w4 (DRB1*0401)) was 450 nM. It also gave an IC50 (DRB1*1501) of 200 nM.
QWAYDNDIVDDSEIA [Peptide 90.0036] was tested, and the IC50 (DR7 (DRB1*0701)) was greater than 20000 nM, the IC50 (DRB1*1201) was greater than 20000 nM and the IC50 (DRB1*0802) was greater than 20000 nM. The IC50 (DRB1*0301) was 990 nM, the IC50 (DRB1*0901) was greater than 20000 nM and the IC50 (DR1 (DRB1*0101)) was greater than 20000 nM. For the same sequence, the IC50 (DRB1*1302) was greater than 20000 nM, the IC50 (DRB5*0101) was greater than 20000 nM and the IC50 (DRB1*1101) was greater than 20000 nM. The IC50 (DRB4*0101) was greater than 20000 nM, the IC50 (DRB1*0405) was 4260 nM and the IC50 (DR4w4 (DRB1*0401)) was 11800 nM. It also gave an IC50 (DRB1*1501) greater than 20000 nM.
In the case of FKKFLKGIPKKSCML [Peptide 89.0073], the IC50 (DR7 (DRB1*0701)) is reported as 2090 nM, the IC50 (DRB1*1201) is reported as 709 nM and the IC50 (DRB1*0802) is reported as 320 nM. The IC50 (DRB1*0301) was greater than 20000 nM, the IC50 (DRB1*0901) was 2480 nM and the IC50 (DR1 (DRB1*0101)) was 20 nM. It also gave an IC50 (DRB1*1302) of 2660 nM, an IC50 (DRB5*0101) of 66 nM and an IC50 (DRB1*1101) of 64 nM. For the same sequence, the IC50 (DRB4*0101) was 2220 nM, the IC50 (DRB1*0405) was 17500 nM and the IC50 (DR4w4 (DRB1*0401)) was 452 nM. The IC50 (DRB1*1501) was 508 nM.
For DWCVAAFGVTGTVAE [Peptide 89.0042], the IC50 (DR7 (DRB1*0701)) was 349 nM, the IC50 (DRB1*1201) was greater than 20000 nM and the IC50 (DRB1*0802) was 3500 nM. It also gave an IC50 (DRB1*0301) greater than 20000 nM, an IC50 (DRB1*0901) of 901 nM and an IC50 (DR1 (DRB1*0101)) of 11 nM. It also gave an IC50 (DRB1*1302) greater than 20000 nM, an IC50 (DRB5*0101) of 8660 nM and an IC50 (DRB1*1101) of 3230 nM. For the same sequence, the IC50 (DRB4*0101) was 601 nM, the IC50 (DRB1*0405) was 184 nM and the IC50 (DR4w4 (DRB1*0401)) was 294 nM. It also gave an IC50 (DRB1*1501) of 64 nM.
RGIIILLLIRFRCSK [Peptide 89.0063] gave an IC50 (DR7 (DRB1*0701)) of 721 nM, an IC50 (DRB1*1201) of 2010 nM and an IC50 (DRB1*0802) of 6420 nM. For the same sequence, the IC50 (DRB1*0301) was greater than 20000 nM, the IC50 (DRB1*0901) was greater than 20000 nM and the IC50 (DR1 (DRB1*0101)) was 674 nM. The IC50 (DRB1*1302) was 352 nM, the IC50 (DRB5*0101) was greater than 20000 nM and the IC50 (DRB4*0101) was 283 nM. The IC50 (DRB1*0405) was 241 nM, the IC50 (DR4w4 (DRB1*0401)) was 883 nM and the IC50 (DRB1*1501) was 431 nM.
Work on ISEVMGDTPEWIQRL [Peptide 90.0052] yielded an IC50 (DR7 (DRB1*0701)) of 4020 nM, an IC50 (DRB1*1201) greater than 20000 nM and an IC50 (DRB1*0802) greater than 20000 nM. The IC50 (DRB1*0301) was 55 nM, the IC50 (DRB1*0901) was greater than 20000 nM and the IC50 (DR1 (DRB1*0101)) was 2880 nM. It also gave an IC50 (DRB1*1302) of 9 nM, an IC50 (DRB5*0101) greater than 20000 nM and an IC50 (DRB1*1101) greater than 20000 nM. The IC50 (DRB4*0101) was 2040 nM, the IC50 (DRB1*0405) was 4110 nM and the IC50 (DR4w4 (DRB1*0401)) was greater than 20000 nM. It also gave an IC50 (DRB1*1501) of 6830 nM.
For YFKYFKEDAKKYSKT [Peptide 90.0253], the IC50 (DR7 (DRB1*0701)) was greater than 20000 nM, the IC50 (DRB1*1201) was greater than 20000 nM and the IC50 (DRB1*0301) was 108 nM. For the same sequence, the IC50 (DRB1*0901) was greater than 20000 nM, the IC50 (DR1 (DRB1*0101)) was 4010 nM and the IC50 (DRB1*1302) was greater than 20000 nM. The IC50 (DRB5*0101) was 289 nM, the IC50 (DRB4*0101) was greater than 20000 nM and the IC50 (DRB1*0405) was greater than 20000 nM. The IC50 (DR4w4 (DRB1*0401)) was 3620 nM and the IC50 (DRB1*1501) was greater than 20000 nM.
For TPEWIQRLTIIQHGI [Peptide 89.0030], the IC50 (DR7 (DRB1*0701)) was 155 nM, the IC50 (DRB1*1201) was 418 nM and the IC50 (DRB1*0802) was 374 nM. It also gave an IC50 (DRB1*0301) greater than 20000 nM, an IC50 (DRB1*0901) of 2430 nM and an IC50 (DR1 (DRB1*0101)) of 669 nM. For the same sequence, the IC50 (DRB1*1302) was 413 nM, the IC50 (DRB5*0101) was 5890 nM and the IC50 (DRB1*1101) was 389 nM. For the same sequence, the IC50 (DRB4*0101) was 6.8 nM, the IC50 (DRB1*0405) was 204 nM and the IC50 (DR4w4 (DRB1*0401)) was 190 nM. For the same sequence, the IC50 (DRB1*1501) was 17600 nM.
